Source: the kinase profiling compilation of Christmann-Franck et al. (2016)
Where “and” joins values, the source holds several entries; their conditions need not be identical. Equal values may be shown once.

Assays:
Assay in all cases: radiometric filter-binding kinase assay
BTK (human) = BTK (human) (UniProt Q06187); settings: compound 100.0 µM; ATP 50 µM
CSK (human) = CSK (human) (UniProt P41240); settings: compound 100.0 µM; ATP 20 µM
DAPK1 (human) = DAPK1 (human) (UniProt P53355); settings: compound 100.0 µM; ATP 5 µM
DYRK1A (human) = DYRK1A (human) (UniProt Q13627); settings: compound 100.0 µM; ATP 50 µM
DYRK3 (human) = DYRK3 (human) (UniProt O43781); settings: compound 100.0 µM; ATP 5 µM
EEF2K (human) = EEF2K (human) (UniProt O00418); settings: compound 100.0 µM; ATP 5 µM
EPHA4 (human) = EPHA4 (human) (UniProt P54764); settings: compound 100.0 µM; ATP 50 µM
EPHB2 (human) = EPHB2 (human) (UniProt P29323); settings: compound 100.0 µM; ATP 20 µM
EPHB4 (human) = EPHB4 (human) (UniProt P54760); settings: compound 100.0 µM; ATP 5 µM
ERBB4 (human) = ERBB4 (human) (UniProt Q15303); settings: compound 100.0 µM; ATP 5 µM
HIPK3 (human) = HIPK3 (human) (UniProt Q9H422); settings: compound 100.0 µM; ATP 20 µM
LCK (mouse) = settings: compound 100.0 µM; ATP 50 µM; accession and sequence are those of the human protein
MAP2K6 (human) = MAP2K6 (human) (UniProt P52564); settings: compound 100.0 µM; ATP 50 µM
MAP3K1 (human) = MAP3K1 (human) (UniProt Q13233); settings: compound 100.0 µM; ATP 50 µM
MAP3K5 (human) = MAP3K5 (human) (UniProt Q99683); settings: compound 100.0 µM; ATP 50 µM
MAPK11 (human) = MAPK11 (human) (UniProt Q15759); settings: compound 100.0 µM; ATP 20 µM
MAPK8 (human) = MAPK8 (human) (UniProt P45983); settings: compound 100.0 µM; ATP 20 µM
MAPKAPK2 (human) = MAPKAPK2 (human) (UniProt P49137); settings: compound 100.0 µM; ATP 20 µM
MAPKAPK5 (human) = MAPKAPK5 (human) (UniProt Q8IW41); settings: compound 100.0 µM; ATP 20 µM
MARK3 (human) = MARK3 (human) (UniProt P27448); settings: compound 100.0 µM; ATP 5 µM
MINK1 (human) = MINK1 (human) (UniProt Q8N4C8); settings: compound 100.0 µM; ATP 50 µM
MKNK1 (human) = MKNK1 (human) (UniProt Q9BUB5); settings: compound 100.0 µM; ATP 50 µM
MKNK2 (human) = MKNK2 (human) (UniProt Q9HBH9); settings: compound 100.0 µM; ATP 50 µM
MYLK (human) = MYLK (human) (UniProt Q15746); settings: compound 100.0 µM; ATP 50 µM
NEK2 (human) = NEK2 (human) (UniProt P51955); settings: compound 100.0 µM; ATP 50 µM
NUAK1 (human) = NUAK1 (human) (UniProt O60285); settings: compound 100.0 µM; ATP 20 µM
[1] = tested on: PAK2 (human), Q13177 [T402E]; settings: compound 100.0 µM; ATP 20 µM
PRKACA (human) = PRKACA (human) (UniProt P17612); settings: compound 100.0 µM; ATP 20 µM
PRKCG (human) = PRKCG (human) (UniProt P05129); settings: compound 100.0 µM; ATP 20 µM
ROCK2 (rat) = settings: compound 100.0 µM; ATP 20 µM; accession and sequence are those of the human protein
RPS6KA1 KD1 KD2 (human) = RPS6KA1 KD1 KD2 (human) (UniProt Q15418); settings: compound 100.0 µM; ATP 50 µM
RPS6KA3 KD1 KD2 (human) = RPS6KA3 KD1 KD2 (human) (UniProt P51812); settings: compound 100.0 µM; ATP 50 µM
RPS6KA5 KD1 KD2 (human) = RPS6KA5 KD1 KD2 (human) (UniProt O75582); settings: compound 100.0 µM; ATP 20 µM
SRC (human) = SRC (human) (UniProt P12931); settings: compound 100.0 µM; ATP 50 µM
STK3 (human) = STK3 (human) (UniProt Q13188); settings: compound 100.0 µM; ATP 20 µM
TAOK1 (human) = TAOK1 (human) (UniProt Q7L7X3); settings: compound 100.0 µM; ATP 20 µM
TEK (human) = TEK (human) (UniProt Q02763); settings: compound 100.0 µM; ATP 20 µM
YES1 (human) = YES1 (human) (UniProt P07947); settings: compound 100.0 µM; ATP 20 µM
ZAP70 (human) = ZAP70 (human) (UniProt P43403); settings: compound 100.0 µM; ATP 5 µM

MAP2K6 (human), sequence (P52564 whole entry, looked up): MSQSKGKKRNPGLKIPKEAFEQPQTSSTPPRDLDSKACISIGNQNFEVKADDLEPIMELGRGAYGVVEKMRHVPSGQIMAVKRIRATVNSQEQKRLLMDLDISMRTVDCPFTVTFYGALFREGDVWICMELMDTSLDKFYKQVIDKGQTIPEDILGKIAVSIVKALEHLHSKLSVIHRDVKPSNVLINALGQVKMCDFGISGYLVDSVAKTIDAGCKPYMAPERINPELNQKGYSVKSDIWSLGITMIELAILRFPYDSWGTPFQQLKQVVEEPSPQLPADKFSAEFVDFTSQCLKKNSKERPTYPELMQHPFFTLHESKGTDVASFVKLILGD
MKNK1 (human), sequence (Q9BUB5 whole entry, looked up): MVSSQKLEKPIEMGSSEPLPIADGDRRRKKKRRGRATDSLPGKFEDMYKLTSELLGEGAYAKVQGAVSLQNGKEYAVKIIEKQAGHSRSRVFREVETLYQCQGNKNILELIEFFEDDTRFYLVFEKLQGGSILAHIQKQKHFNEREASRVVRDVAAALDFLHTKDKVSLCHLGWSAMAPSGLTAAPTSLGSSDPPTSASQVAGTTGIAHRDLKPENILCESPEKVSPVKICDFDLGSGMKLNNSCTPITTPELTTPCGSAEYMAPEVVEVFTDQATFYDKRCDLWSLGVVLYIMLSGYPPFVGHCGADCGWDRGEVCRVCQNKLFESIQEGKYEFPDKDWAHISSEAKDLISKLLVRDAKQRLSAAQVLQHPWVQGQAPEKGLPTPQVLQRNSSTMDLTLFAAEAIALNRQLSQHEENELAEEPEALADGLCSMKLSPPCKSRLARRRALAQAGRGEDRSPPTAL
CSK (human), sequence (P41240 whole entry, looked up): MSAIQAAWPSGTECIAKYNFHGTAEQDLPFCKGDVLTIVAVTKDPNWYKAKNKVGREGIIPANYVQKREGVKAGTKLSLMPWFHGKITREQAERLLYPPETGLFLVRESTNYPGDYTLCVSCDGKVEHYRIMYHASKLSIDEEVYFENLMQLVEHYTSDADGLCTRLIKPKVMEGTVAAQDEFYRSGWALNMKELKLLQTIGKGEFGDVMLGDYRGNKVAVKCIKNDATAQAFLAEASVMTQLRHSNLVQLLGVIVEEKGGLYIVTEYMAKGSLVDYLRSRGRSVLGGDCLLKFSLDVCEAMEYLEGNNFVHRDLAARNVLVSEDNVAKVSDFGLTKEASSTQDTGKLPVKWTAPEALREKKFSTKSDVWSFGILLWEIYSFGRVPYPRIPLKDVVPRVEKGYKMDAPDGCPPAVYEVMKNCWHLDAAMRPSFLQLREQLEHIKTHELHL
ERBB4 (human), sequence (Q15303 whole entry, looked up): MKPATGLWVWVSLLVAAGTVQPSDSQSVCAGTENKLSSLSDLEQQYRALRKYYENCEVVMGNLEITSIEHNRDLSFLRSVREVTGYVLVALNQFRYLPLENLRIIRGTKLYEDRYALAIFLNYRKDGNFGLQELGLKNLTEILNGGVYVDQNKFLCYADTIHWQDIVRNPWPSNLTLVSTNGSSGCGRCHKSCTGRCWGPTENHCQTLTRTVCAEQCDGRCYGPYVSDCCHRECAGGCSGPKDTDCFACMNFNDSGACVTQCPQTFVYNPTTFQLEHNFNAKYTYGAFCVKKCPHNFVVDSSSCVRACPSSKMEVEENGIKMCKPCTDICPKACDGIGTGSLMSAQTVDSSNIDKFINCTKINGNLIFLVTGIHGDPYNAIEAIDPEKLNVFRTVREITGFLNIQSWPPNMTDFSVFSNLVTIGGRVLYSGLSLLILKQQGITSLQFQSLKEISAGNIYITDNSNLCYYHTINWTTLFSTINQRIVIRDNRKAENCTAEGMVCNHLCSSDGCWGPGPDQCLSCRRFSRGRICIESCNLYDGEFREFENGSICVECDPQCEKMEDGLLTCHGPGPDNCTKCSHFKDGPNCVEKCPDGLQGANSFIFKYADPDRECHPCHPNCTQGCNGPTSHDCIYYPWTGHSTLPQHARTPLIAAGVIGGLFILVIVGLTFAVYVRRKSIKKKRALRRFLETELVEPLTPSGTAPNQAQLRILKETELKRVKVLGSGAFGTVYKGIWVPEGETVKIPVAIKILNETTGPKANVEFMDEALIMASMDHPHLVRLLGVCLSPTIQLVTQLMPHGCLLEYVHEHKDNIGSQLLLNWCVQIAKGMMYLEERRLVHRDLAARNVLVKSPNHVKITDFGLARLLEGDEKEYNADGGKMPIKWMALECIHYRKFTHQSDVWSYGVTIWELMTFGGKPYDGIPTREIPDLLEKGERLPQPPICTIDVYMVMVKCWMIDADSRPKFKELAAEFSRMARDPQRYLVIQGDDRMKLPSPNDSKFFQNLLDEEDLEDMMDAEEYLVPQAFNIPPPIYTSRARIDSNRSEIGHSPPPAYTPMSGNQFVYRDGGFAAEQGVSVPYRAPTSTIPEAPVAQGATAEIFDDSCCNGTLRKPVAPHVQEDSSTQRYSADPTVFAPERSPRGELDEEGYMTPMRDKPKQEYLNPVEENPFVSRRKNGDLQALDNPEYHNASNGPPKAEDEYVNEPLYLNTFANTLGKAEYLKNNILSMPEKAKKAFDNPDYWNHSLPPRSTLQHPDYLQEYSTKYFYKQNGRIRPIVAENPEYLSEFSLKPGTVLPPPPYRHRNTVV
RPS6KA3 KD1 KD2 (human), sequence (P51812 whole entry, looked up): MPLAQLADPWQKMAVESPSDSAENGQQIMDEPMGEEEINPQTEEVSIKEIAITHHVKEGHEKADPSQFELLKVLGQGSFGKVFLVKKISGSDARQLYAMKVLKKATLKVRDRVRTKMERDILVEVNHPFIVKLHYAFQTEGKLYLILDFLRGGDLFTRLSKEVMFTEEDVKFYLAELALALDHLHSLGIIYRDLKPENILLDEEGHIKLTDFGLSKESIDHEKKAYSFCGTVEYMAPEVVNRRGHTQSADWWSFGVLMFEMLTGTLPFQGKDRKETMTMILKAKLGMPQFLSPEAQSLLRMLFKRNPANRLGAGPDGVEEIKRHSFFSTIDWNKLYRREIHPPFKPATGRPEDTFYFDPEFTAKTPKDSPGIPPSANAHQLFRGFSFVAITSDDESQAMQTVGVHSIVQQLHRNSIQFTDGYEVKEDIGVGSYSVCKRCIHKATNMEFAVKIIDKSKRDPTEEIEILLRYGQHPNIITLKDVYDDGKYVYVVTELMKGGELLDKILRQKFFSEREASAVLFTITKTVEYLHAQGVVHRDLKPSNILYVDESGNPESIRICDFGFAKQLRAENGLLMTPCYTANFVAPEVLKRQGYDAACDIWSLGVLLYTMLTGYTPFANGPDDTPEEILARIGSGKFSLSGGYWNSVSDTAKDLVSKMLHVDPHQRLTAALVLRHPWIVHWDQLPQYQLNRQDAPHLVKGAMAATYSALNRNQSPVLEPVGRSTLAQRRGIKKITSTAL
NEK2 (human), sequence (P51955 whole entry, looked up): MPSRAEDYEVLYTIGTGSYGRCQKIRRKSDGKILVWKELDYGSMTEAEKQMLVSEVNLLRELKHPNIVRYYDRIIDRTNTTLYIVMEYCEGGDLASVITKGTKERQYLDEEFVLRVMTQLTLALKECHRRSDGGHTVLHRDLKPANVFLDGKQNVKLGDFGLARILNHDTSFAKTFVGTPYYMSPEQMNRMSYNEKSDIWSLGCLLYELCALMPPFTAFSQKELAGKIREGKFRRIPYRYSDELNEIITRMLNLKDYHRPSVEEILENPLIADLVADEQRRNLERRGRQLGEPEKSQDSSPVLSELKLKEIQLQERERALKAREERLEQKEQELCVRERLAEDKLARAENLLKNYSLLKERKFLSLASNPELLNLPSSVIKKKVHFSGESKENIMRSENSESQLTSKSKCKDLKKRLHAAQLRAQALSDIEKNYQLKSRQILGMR
RPS6KA1 KD1 KD2 (human), sequence (Q15418 whole entry, looked up): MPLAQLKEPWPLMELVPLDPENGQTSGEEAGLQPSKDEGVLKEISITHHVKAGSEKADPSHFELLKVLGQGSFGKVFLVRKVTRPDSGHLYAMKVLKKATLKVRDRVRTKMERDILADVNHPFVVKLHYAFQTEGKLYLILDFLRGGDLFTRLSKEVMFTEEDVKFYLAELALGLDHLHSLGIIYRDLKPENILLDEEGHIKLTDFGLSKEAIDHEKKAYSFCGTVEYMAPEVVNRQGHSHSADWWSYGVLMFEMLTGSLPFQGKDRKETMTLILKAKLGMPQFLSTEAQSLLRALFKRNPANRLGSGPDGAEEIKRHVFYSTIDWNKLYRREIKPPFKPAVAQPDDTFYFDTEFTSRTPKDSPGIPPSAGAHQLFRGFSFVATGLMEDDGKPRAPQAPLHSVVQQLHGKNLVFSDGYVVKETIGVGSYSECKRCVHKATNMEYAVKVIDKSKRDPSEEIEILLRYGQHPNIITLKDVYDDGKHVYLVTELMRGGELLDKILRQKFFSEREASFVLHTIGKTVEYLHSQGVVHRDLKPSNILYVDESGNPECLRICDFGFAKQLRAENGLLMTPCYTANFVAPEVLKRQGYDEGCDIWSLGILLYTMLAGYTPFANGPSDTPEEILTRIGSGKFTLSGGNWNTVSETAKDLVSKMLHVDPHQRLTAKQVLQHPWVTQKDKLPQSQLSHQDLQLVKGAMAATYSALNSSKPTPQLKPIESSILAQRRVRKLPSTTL
MAPK11 (human), sequence (Q15759 whole entry, looked up): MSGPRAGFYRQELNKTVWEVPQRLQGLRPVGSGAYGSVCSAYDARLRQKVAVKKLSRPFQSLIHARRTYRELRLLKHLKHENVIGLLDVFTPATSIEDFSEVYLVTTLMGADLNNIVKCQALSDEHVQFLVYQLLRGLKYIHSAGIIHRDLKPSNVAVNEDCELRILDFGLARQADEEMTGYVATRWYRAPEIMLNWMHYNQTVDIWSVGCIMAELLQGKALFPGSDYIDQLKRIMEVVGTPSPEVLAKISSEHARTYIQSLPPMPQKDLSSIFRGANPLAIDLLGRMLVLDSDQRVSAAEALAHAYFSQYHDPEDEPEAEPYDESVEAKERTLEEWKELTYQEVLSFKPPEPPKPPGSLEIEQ

Row | Structure (SMILES) | inhibition (BTK (human)) [%] | inhibition (CSK (human)) [%] | inhibition (DAPK1 (human)) [%] | inhibition (DYRK1A (human)) [%] | inhibition (DYRK3 (human)) [%] | inhibition (EEF2K (human)) [%] | inhibition (EPHA4 (human)) [%] | inhibition (EPHB2 (human)) [%] | inhibition (EPHB4 (human)) [%] | inhibition (ERBB4 (human)) [%] | inhibition (HIPK3 (human)) [%] | inhibition (LCK (mouse)) [%] | inhibition (MAP2K6 (human)) [%] | inhibition (MAP3K1 (human)) [%] | inhibition (MAP3K5 (human)) [%] | inhibition (MAPK11 (human)) [%] | inhibition (MAPK8 (human)) [%] | inhibition (MAPKAPK2 (human)) [%] | inhibition (MAPKAPK5 (human)) [%] | inhibition (MARK3 (human)) [%] | also measured
1 | O=c1c(NC(=S)NCc2ccccc2)cnc2[nH]ccn12 | 16 | 26 | 0 | 5 | 10 | 6 | 15 | 3 | 9 | 34 | 0 | 0 | 0 | 0 | 0 | 7 | 0 | 23 | 0 | 9 | inhibition (MINK1 (human)): 0%; inhibition (MKNK1 (human)): 0%; inhibition (MKNK2 (human)): 13%; inhibition (MYLK (human)): 0%; inhibition (NEK2 (human)): 4%; inhibition (NUAK1 (human)): 0%; inhibition [1]: 5%; inhibition (PRKACA (human)): 0%; inhibition (PRKCG (human)): 0%; inhibition (ROCK2 (rat)): 13%; inhibition (RPS6KA1 KD1 KD2 (human)): 17%; inhibition (RPS6KA3 KD1 KD2 (human)): 20%; inhibition (RPS6KA5 KD1 KD2 (human)): 0%; inhibition (SRC (human)): 0%; inhibition (STK3 (human)): 3%; inhibition (TAOK1 (human)): 0%; inhibition (TEK (human)): 0%; inhibition (YES1 (human)): 0%; inhibition (ZAP70 (human)): 0%
2 | Cc1cccc(C)c1-c1cn2nc(N)nc2cn1 | 44 | 24 | 0 | 19 | 30 | 13 | 38 | 0 | 14 | 28 | 7 | 37 | 8 | 17 | 15 | 20 | 7 | 14 | 26 | 0 | inhibition (MINK1 (human)): 45%; inhibition (MKNK1 (human)): 24%; inhibition (MKNK2 (human)): 30%; inhibition (MYLK (human)): 12%; inhibition (NEK2 (human)): 38%; inhibition (NUAK1 (human)): 28%; inhibition [1]: 56%; inhibition (PRKACA (human)): 0% and 19%; inhibition (PRKCG (human)): 6%; inhibition (ROCK2 (rat)): 19%; inhibition (RPS6KA1 KD1 KD2 (human)): 21%; inhibition (RPS6KA3 KD1 KD2 (human)): 42%; inhibition (RPS6KA5 KD1 KD2 (human)): 6%; inhibition (SRC (human)): 29%; inhibition (STK3 (human)): 9%; inhibition (TAOK1 (human)): 12%; inhibition (TEK (human)): 6%; inhibition (YES1 (human)): 42%; inhibition (ZAP70 (human)): 0%
3 | CC(=O)Nc1nc2cnc(-c3c(C)cccc3C)cn2n1 | 0 | 0 | 0 | 0 | 12 | 7 | 10 | 0 | 27 | 9 | 0 | 0 | 0 | 0 | 0 | 0 | 0 | 0 | 17 | 0 | inhibition (MINK1 (human)): 0%; inhibition (MKNK1 (human)): 0%; inhibition (MKNK2 (human)): 0%; inhibition (MYLK (human)): 0%; inhibition (NEK2 (human)): 0%; inhibition (NUAK1 (human)): 0%; inhibition [1]: 0%; inhibition (PRKACA (human)): 0% and 1%; inhibition (PRKCG (human)): 12%; inhibition (ROCK2 (rat)): 0%; inhibition (RPS6KA1 KD1 KD2 (human)): 0%; inhibition (RPS6KA3 KD1 KD2 (human)): 23%; inhibition (RPS6KA5 KD1 KD2 (human)): 0%; inhibition (SRC (human)): 0%; inhibition (STK3 (human)): 0%; inhibition (TAOK1 (human)): 1%; inhibition (TEK (human)): 0%; inhibition (YES1 (human)): 17%; inhibition (ZAP70 (human)): 9%
